Assay results: patent US6503881B2 (priority 1996, dated 2003)
Converted amounts (≈) assume the structure as drawn. Read-outs that look alike come from different tables or passages of the source.

Key:
[1] = tested on: P. aeruginosa; format: cell-based
[2] = tested on: inherently resistant microorganisms; conditions: E. coli SBECO1; pair Mupirocin / MBI 28
[3] = tested on: microorganisms with acquired resistance
[4] = format: biochemical
[5] = tested on: E. coli strain ML-35; format: cell-based; conditions: for ONPG hydrolysis diminished: cells pre-incubated with vancomycin, compared to no pre-incubation
[6] = tested on: MSSA (Smith, ATCC #19640); format: in vivo, S. aureus; conditions: formulation D
[7] = tested on: S. epidermidis (ATCC #12228); conditions: in vivo, iv
[8] = tested on: MRSA (ATCC #33591); format: in vivo, S. aureus; conditions: for Percentage of Animals Surviving, Treatment: MRSA ip infection in mice, iv in formulation D, protocol not named in table (1 mg/kg (20 min)); for survival: iv
[9] = tested on: bacteria
[10] = tested on: bacterial isolates; conditions: S. aureus 19 MRSA
[11] = S. aureus MRSA 13, pair Mupirocin / MBI 10CN
[12] = S. aureus MRSA 17, pair Mupirocin / MBI 10CN, first line
[13] = E. coli ATCC 25922, agarose dilution assay
[14] = E. coli NCTC 10418, agarose dilution assay
[15] = E. faecium ATCC 29212, agarose dilution assay
[16] = P. aeruginosa ATCC 27853, agarose dilution assay
[17] = P. aeruginosa NCTC 10662, agarose dilution assay
[18] = S. aureus MRSA9, agarose dilution assay
[19] = S. aureus MRSA13, agarose dilution assay
[20] = S. aureus MRSA17, agarose dilution assay
[21] = S. marcescens SM82, agarose dilution assay
[22] = S. pneumoniae 406LE8, agarose dilution assay
[23] = S. pneumoniae 60120, agarose dilution assay
[24] = S. pneumoniae ATCC 49619, agarose dilution assay

Compound `C/C(=C\C(=O)OCCCCCCCCC(=O)O)C[C@@H]1OC[C@H](C[C@@H]2O[C@H]2[C@@H](C)[C@H](C)O)[C@@H](O)[C@H]1O` [Mupirocin] has an MIC in combination ([1]; P. aeruginosa PA2, pair Mupirocin / MBI 27) of 0.1 µg/mL, an MIC in combination ([1]; P. aeruginosa PA2, pair Mupirocin / MBI 29A3) of 0.1 µg/mL and an MIC in combination ([1]; P. aeruginosa PA3, pair Mupirocin / MBI 29A3) of 0.1 µg/mL. The MIC in combination ([1]; P. aeruginosa PA4, pair Mupirocin / MBI 27) was 0.3 µg/mL, the MIC in combination ([1]; P. aeruginosa PA4, pair Mupirocin / MBI 29A3) was 0.1 µg/mL and the MIC in combination ([1]; P. aeruginosa SBPA2, pair Mupirocin / MBI 29A3) was 0.1 µg/mL. The MIC in combination [2] was 0.1 µg/mL, the MIC comb. [3, 11] was 3 µg/mL (≈ 5.99 µM) and the MIC comb. [3, 12] was 1 µg/mL (≈ 2 µM). It also gave an MIC comb. ([3]; S. aureus MRSA 17, pair Mupirocin / MBI 11G13CN) of 1 µg/mL (≈ 2 µM).
In the case of I L K K W P W W P W R R K [MBI 11CN], the “membrane permeabilizing activity (ANTS/DPX dye release)” value [4] is reported as “virtually abolishes membrane permeabilizing activity”, the ONPG hydrolysis diminished [5] is reported as “approximately 50%” and the “survival (mice rescued)” value ([6]; ip 35.7 mg/kg, 60 minutes post-infection, 8 days) is reported as 100%. The “activity at lower dose levels” value ([6]; ip below 35.7 mg/kg) was “little or no activity”, the survival of mice [7] was “prolongs the survival of the mice” and the “Percentage of Animals Surviving, Treatment” value ([8]; 6 hours post-infection) was 70%. The “Percentage of Animals Surviving, Treatment” value ([8]; 10 hours post-infection) was 30%, the survival ([8]; 1 mg/kg (20 min) protocol, injections 5 minutes apart) was “delayed the death of the mice to a significant extent” and the survival ([8]; 5 mg/kg and 1 mg/kg (2 hr) protocols, injections 1 hour apart) was “no improvement in survivability over the negative control”. The MIC [9, 13] was 16 µg/mL, the MIC [9, 14] was 4 µg/mL and the MIC [9, 15] was 8 µg/mL. The MIC [9, 16] was greater than 128 µg/mL, the MIC [9, 17] was greater than 128 µg/mL and the MIC [9, 18] was 2 µg/mL. It also gave an MIC [9, 19] of 16 µg/mL, an MIC [9, 20] of 4 µg/mL and an MIC [9, 21] greater than 128 µg/mL. For the same compound, the MIC [9, 22] was greater than 128 µg/mL, the MIC [9, 23] was greater than 128 µg/mL and the MIC [9, 24] was 64 µg/mL. For the same compound, the FIC ([3]; peptide + Tobramycin, S. maltophilia SMA030) was 9.27.
With I L P W K W P W W P W R R [MBI 10CN] the ONPG hydrolysis diminished [5] was “approximately 50%”, the MIC ([9]; A. calcoaceticus AC001) was 64 µg/mL and the MIC ([9]; E. cloacae ECL007) was greater than 128 µg/mL. It also gave an MIC [9, 13] of 16 µg/mL, an MIC ([9]; E. coli ECO001) of 32 µg/mL and an MIC [9, 14] of 8 µg/mL. It also gave an MIC ([9]; E. coli SBECO2) of 16 µg/mL, an MIC ([9]; E. faecalis EFS004) of 8 µg/mL and an MIC [9, 15] of 4 µg/mL. The MIC ([9]; E. faecium EFM003) was 2 µg/mL, the MIC ([9]; K. pneumoniae KP002) was 64 µg/mL and the MIC [9, 16] was greater than 128 µg/mL. It also gave an MIC [9, 17] greater than 128 µg/mL, an MIC ([9]; P. aeruginosa PA002) greater than 128 µg/mL and an MIC [9, 18] of 1 µg/mL. It also gave an MIC [9, 19] of 4 µg/mL, an MIC [9, 20] of 2 µg/mL and an MIC ([9]; S. aureus SA003) of 2 µg/mL. For the same compound, the MIC ([9]; S. epidermidis SE010) was 4 µg/mL, the MIC ([9]; S. maltophilia SMA002) was 64 µg/mL and the MIC [9, 21] was greater than 128 µg/mL. For the same compound, the MIC ([9]; S. marcescens SMS004) was greater than 128 µg/mL, the MIC [9, 22] was greater than 128 µg/mL and the MIC [9, 23] was 64 µg/mL. The MIC [9, 24] was 32 µg/mL, the Peptide MIC [3, 11] was 4 µg/mL and the Peptide MIC [3, 12] was 1 µg/mL. For the same compound, the Peptide MIC ([3]; S. aureus MRSA 17, pair Mupirocin / MBI 10CN, second line) was 2 µg/mL.
With I L R W P W W P W R R K [MBI 11B7CN] the FIC ([1]; P. aeruginosa PA008, pair Ceftriaxone / MBI 11B7CN) was 9.50, the membrane permeabilizing activity ([5]; peptide pre-incubated with 150 mM NaCl or 5 mM Mg2+) was “significant inhibition” and the FIC ([10]; Piperacillin + peptide) was 0.50. For the same compound, the “Peptide MIC + Piperacillin” value [10] was 1 µg/mL, the “Peptide MIC Alone” value [10] was 4 µg/mL and the “Piperacillin MIC + Peptide” value [10] was 32 µg/mL.
